Blank lines part the entries; values can stand above or below the compound they belong to. Active and inactive are the calls of the source.
How the values were obtained:
[1] = target: Benomyl/methotrexate resistance protein (Candida albicans, UniProt P28873); assay: CaMdr1 efflux pump inhibitor potency, dose response, singleplex, Cherry Pick1 hits (AID 588608); assay type: functional
[2] = target: Protein Wnt-3a (Mus musculus, UniProt P27467); assay: Wnt3a-driven reporter signaling inhibition, dose response, selectivity assay for Gli-SUFU antagonist project, Wnt-LIGHT cells, luminescence (AID 651570); assay type: functional; details: read-out: IC50_Mean;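 further: Wnt-LIGHT reporter cells stimulated with conditioned medium from Wnt3a-producing cells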
Sequence of Protein Wnt-3a (P27467 whole entry): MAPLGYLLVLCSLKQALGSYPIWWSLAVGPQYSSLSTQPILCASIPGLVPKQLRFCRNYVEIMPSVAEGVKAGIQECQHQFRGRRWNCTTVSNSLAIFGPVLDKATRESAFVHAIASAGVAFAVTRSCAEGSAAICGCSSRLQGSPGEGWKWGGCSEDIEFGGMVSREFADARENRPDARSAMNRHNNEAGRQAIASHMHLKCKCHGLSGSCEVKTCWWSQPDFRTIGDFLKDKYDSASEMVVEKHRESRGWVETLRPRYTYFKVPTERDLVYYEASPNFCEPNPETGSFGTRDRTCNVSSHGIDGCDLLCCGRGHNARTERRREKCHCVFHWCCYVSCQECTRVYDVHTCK

[3] = target: T1, High affinity choline transporter 1 (Homo sapiens, UniProt Q9GZV3); assay: CHT inhibitors, dose response, cell-based, 5-point CRC, membrane potential dye (AID 504840); assay type: functional
T1 sequence (Q9GZV3 whole entry): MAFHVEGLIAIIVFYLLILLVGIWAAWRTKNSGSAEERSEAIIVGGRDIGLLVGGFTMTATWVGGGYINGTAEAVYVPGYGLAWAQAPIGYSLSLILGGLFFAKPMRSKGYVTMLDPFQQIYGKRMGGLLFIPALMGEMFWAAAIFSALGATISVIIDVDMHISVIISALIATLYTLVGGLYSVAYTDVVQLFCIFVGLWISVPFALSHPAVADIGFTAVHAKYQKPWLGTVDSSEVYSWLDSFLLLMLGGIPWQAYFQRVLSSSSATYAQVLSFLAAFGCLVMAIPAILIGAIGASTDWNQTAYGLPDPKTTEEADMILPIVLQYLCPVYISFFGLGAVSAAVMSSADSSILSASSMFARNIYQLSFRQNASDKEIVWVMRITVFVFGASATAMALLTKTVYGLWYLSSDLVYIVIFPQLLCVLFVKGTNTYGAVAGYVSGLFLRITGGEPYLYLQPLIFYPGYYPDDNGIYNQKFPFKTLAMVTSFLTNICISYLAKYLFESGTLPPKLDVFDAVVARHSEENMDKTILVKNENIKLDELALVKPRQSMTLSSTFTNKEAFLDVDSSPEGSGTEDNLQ

[4] = target: T1, High affinity choline transporter 1; assay: CHT inhibitors, dose response, cell-based, 10-point CRC, membrane potential dye (AID 588401); assay type: functional;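 further: membrane potential dye fluorescence of choline-evoked depolarization via CHT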
[5] = target: T2, Rac GTPase-activating protein 1 (Homo sapiens, UniProt Q9H0H5); assay: MgcRacGAP GTPase-activating activity inhibitors, confirmation, biochemical, ADP Hunter fluorescence, primary and confirmatory (AID 624330); assay type: functional
T2 sequence (Q9H0H5 whole entry): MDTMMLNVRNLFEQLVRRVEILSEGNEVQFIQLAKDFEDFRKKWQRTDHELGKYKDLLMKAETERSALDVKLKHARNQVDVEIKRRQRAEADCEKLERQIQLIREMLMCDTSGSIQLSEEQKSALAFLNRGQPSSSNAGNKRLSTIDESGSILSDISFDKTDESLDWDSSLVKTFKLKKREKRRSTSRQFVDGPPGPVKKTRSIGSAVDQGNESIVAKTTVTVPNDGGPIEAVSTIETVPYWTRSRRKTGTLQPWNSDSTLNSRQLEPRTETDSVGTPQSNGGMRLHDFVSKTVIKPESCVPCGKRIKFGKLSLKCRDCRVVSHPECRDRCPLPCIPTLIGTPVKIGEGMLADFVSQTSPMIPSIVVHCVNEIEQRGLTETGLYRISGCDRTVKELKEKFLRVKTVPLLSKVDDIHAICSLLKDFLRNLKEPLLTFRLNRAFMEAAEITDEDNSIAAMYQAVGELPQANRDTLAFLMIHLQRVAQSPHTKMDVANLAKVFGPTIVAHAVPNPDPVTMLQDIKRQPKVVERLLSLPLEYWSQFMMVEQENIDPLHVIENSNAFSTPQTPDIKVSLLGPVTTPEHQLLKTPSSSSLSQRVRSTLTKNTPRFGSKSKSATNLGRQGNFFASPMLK

[6] = target: Mu-type opioid receptor (Homo sapiens, UniProt P35372); assay type: functional, cell-based;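 further: U2OS cells with beta-arrestin recruitment to OPRM1 by beta-gal complementation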
Sequence of Mu-type opioid receptor (P35372 whole entry): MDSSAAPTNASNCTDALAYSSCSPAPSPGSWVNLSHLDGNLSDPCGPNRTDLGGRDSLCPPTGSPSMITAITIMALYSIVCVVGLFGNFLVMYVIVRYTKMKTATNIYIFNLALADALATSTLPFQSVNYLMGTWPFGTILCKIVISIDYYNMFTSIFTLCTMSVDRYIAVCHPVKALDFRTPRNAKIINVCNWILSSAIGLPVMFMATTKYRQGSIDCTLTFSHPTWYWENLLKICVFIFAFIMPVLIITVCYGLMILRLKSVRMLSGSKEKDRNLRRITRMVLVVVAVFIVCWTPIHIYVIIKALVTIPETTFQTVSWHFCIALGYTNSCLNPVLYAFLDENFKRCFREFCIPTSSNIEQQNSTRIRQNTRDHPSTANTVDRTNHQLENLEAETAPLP

[7] = target: 5-hydroxytryptamine receptor 2A (Mus musculus, UniProt P35363); assay type: functional, cell-based;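 further: CHO-K1 cells with tagged receptor and beta-arrestin; agonist potency measured as compound-induced activation of the receptor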
Sequence of 5-hydroxytryptamine receptor 2A (P35363 whole entry, the tested form may be a part): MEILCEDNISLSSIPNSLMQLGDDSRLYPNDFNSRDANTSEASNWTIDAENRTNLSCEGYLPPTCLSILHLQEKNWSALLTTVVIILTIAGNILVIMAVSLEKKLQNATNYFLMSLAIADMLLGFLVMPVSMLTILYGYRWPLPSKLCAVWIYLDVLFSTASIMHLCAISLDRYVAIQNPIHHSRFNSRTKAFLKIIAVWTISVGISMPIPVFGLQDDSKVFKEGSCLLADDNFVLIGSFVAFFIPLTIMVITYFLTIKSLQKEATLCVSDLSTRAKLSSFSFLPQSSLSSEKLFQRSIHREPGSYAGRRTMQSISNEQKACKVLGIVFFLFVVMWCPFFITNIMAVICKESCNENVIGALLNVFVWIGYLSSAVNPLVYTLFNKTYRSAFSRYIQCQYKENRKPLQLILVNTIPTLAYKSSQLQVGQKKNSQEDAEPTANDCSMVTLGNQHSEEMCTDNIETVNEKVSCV

[8] = target: T3, Sentrin-specific protease 1 (Homo sapiens, UniProt Q9P0U3); assay: Dose response confirmation of small molecule inhibitors of the catalytic domain of the SUMO protease, SENP1 in a FRET assay.; assay type: functional; details: read-out: IC50_Mean
T3 sequence (Q9P0U3 whole entry): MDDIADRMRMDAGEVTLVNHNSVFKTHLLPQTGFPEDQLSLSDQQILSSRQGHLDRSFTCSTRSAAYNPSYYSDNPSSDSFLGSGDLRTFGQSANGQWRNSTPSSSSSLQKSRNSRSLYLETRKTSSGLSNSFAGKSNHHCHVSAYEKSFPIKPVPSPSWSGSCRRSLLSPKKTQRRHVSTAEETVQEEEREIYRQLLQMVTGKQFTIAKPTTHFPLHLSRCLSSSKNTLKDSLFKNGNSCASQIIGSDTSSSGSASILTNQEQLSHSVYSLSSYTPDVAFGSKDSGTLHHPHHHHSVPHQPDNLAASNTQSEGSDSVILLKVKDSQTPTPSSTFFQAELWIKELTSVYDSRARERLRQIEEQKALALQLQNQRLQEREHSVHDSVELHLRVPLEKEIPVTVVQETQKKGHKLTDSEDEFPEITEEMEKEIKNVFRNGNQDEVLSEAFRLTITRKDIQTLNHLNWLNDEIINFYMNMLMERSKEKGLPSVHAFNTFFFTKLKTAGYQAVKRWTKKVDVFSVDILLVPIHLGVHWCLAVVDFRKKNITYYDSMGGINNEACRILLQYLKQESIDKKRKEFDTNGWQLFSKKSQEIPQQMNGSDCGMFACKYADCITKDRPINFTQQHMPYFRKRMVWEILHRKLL

[9] = target: T3, Sentrin-specific protease 1; assay: potency of human SENP1 inhibitors, dose response, biochemical, kinetic FRET (AID 651697); assay type: functional; details: read-out: IC50_Mean
[10] = target: T4, Sentrin-specific protease 8 (Homo sapiens, UniProt Q96LD8); assay type: functional;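 further: kinetic enzyme assay of SENP8 cleaving a Nedd8 protein substrate, dose-response confirmation of screening hits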
T4 sequence (Q96LD8 whole entry): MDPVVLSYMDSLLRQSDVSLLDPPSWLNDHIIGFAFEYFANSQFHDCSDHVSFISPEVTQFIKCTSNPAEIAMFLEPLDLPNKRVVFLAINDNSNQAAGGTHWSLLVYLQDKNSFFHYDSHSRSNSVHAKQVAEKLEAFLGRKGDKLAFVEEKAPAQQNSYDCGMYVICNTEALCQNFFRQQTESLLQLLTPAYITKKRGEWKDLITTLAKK

[11] = target: T5, Caspase-3 (Homo sapiens, UniProt P42574); assay: SAR Analysis of small molecule inhibitors of Sentrin-specific proteases (SENPs) using a Caspase-3 Selectivity assay. [Related pubchem assays (depositor defined):AID2540, AID2599, AID434973, AID489001]; assay type: functional
T5 sequence (P42574 whole entry): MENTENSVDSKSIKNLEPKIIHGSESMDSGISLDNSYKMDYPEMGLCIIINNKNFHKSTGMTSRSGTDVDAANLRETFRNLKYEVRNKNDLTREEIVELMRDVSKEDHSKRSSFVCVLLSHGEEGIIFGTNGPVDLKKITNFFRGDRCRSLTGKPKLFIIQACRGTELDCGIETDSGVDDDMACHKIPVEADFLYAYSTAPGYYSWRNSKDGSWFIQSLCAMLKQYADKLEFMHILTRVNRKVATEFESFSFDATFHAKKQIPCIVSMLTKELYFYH

[12] = target: T6, Sentrin-specific protease 6 (Homo sapiens, UniProt Q9GZR1); assay: SAR Analysis of small molecule inhibitors of Sentrin-specific protease 6 (SENP6) using a Luminescent assay. [Related pubchem assays (depositor defined):AID2582, AID2599]; assay type: functional
T6 sequence (Q9GZR1 whole entry): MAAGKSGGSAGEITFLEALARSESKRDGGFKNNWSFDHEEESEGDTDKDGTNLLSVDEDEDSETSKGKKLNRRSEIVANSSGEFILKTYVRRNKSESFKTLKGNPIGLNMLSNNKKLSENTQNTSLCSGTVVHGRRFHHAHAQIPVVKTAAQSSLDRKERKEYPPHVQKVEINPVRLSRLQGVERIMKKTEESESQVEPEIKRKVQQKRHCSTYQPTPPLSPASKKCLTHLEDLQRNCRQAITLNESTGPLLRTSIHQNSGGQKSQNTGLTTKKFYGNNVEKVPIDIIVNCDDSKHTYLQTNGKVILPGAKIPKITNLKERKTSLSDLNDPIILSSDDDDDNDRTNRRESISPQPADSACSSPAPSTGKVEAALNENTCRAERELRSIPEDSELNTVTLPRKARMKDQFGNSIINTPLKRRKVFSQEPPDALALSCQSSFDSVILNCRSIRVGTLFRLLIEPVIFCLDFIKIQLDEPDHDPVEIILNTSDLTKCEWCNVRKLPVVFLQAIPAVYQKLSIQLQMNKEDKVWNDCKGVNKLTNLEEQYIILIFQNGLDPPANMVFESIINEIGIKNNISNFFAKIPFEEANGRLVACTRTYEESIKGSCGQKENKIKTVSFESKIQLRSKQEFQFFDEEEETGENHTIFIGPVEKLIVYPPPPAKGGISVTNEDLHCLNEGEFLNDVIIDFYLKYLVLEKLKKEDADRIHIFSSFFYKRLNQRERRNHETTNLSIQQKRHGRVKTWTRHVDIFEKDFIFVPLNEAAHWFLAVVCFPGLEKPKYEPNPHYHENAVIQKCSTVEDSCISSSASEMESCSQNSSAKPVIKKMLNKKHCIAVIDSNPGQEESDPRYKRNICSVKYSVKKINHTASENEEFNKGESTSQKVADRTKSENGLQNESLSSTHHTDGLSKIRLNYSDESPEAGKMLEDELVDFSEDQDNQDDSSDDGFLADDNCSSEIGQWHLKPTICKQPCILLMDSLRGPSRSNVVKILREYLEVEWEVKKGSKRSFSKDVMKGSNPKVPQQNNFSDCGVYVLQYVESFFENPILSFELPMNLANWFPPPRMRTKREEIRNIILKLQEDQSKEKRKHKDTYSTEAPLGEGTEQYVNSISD

[13] = target: T4, Sentrin-specific protease 8; assay: SENP8 protease inhibitors, SAR follow-up, biochemical, luminescence (AID 504501); assay type: functional
[14] = target: T7, Sentrin-specific protease 7 (Homo sapiens, UniProt Q9BQF6); assay: SENP7 protease inhibitors, SAR follow-up, biochemical, luminescence (AID 504497); assay type: functional
T7 sequence (Q9BQF6 whole entry): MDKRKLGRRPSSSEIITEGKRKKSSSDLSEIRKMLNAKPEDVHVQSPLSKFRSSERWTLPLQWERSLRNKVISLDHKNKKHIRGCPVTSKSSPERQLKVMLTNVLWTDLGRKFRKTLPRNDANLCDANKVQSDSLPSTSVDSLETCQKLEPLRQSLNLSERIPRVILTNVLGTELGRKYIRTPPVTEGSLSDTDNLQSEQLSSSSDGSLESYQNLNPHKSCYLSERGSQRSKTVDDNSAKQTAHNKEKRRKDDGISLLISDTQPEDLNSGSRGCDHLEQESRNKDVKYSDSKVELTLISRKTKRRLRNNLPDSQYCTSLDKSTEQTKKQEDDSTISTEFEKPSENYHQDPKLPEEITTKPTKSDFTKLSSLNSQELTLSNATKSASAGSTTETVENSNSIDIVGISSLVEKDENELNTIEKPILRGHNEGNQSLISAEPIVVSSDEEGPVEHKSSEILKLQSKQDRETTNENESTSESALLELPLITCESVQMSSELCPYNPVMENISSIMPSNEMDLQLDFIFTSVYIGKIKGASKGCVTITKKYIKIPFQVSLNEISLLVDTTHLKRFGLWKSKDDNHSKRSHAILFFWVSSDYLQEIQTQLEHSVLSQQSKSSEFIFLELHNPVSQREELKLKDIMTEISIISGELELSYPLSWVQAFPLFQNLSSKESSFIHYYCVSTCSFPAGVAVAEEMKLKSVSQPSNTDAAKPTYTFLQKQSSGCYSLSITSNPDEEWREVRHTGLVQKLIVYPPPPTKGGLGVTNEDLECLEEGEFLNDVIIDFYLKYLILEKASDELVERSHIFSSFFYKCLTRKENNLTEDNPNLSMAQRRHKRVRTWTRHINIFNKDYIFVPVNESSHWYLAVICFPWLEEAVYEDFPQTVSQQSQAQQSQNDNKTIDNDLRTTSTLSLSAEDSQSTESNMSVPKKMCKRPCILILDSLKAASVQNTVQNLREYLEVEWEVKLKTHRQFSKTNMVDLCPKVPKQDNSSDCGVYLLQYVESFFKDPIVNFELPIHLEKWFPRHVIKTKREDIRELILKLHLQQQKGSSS

[15] = target: Mitochondrial peptide methionine sulfoxide reductase (Bos taurus, UniProt P54149); assay type: functional;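 further: absorbance read-out, biochemical high-throughput dose-response screen for MsrA inhibitors, confirmatory; recombinant bovine MsrA coupled to E. coli TrxB with NADPH and selenocystamine; potency is for inhibitors of MsrA activity on DMSO substrate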
Sequence of Mitochondrial peptide methionine sulfoxide reductase (P54149 whole entry): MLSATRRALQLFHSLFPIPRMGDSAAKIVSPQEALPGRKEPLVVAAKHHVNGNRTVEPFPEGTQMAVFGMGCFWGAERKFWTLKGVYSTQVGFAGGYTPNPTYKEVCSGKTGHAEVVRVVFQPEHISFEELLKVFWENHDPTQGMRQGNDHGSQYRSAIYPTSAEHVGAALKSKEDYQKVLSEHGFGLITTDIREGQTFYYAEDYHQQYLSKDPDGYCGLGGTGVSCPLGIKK

Sequence of Benomyl/methotrexate resistance protein (P28873 whole entry): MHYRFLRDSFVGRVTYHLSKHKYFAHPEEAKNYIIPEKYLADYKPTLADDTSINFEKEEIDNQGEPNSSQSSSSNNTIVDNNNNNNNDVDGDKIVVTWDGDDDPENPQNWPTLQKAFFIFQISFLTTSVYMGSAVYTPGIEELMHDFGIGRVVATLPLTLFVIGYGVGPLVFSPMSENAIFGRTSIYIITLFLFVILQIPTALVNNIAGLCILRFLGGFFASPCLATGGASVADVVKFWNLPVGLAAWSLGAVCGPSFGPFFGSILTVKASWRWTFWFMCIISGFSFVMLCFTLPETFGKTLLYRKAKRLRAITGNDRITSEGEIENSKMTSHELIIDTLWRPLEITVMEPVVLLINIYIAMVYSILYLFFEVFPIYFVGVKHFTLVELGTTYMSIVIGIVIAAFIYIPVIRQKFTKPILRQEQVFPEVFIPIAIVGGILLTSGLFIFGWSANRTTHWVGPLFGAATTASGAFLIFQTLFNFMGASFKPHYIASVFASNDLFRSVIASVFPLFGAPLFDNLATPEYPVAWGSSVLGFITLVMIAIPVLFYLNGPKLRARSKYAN

IC50 [2]: 19.9 µM (active)
IC50 [3]: 7.51 µM (active)
IC50 [4]: 6.21 µM (active)
SMILES: NC(=O)CC(NC(=O)c1ccccc1)c1ccc(N2CCCCCC2)c([N+](=O)[O-])c1 (configuration not stated)

IC50 [5]: 98.7 µM (active)
EC50 [6]: 92.4 µM (inactive)
EC50 [7]: 76.1 µM (inactive)
SMILES: COc1ccc(S(=O)(=O)N2CCC(N3CCN(Cc4ccccc4)CC3)CC2)cc1

IC50 [8]: 69.6 µM (inactive)
IC50 [9]: 26.6 µM (inactive)
SMILES: CC(=O)c1ccccc1Oc1nc(CN2CCOCC2)nc2scc(-c3cccs3)c12

IC50 [11]: > 99 µM (inactive)
IC50 [12]: 43.7 µM (active)
IC50 [14]: 85.3 µM (active)
SMILES: CCCc1ccc(OCc2ccc(C(=O)Nc3ccccc3F)cc2)cc1
IC50 [13]: 70.3 µM (active)

IC50 [11]: > 99 µM (inactive)
IC50 [12]: > 99 µM (inactive)
IC50 [14]: > 99 µM (inactive)
SMILES: FC(F)(F)c1ccc(N/N=C/c2cn(Cc3ccccc3)c3ccccc23)cc1
IC50 [13]: > 99 µM (inactive)

IC50 [15]: 125 µM (inactive)
SMILES: CC(Nc1c([N+](=O)[O-])c(=O)oc2ccccc12)c1ccccc1 (configuration not stated)

Second part, the compound before the results:

SMILES: O=C(COC(=O)c1c2ccccc2cc2ccccc12)Nc1ncc(C(F)(F)F)cc1Cl
EC50 [1]: 23 µM (active)

SMILES: CNc1cc(Cl)nc(SC)n1
IC50 [3]: 3.92 µM (active)
IC50 [4]: 2.67 µM (active)

SMILES: O=[N+]([O-])c1c[cH-]c(N2CCN(Cc3ccccc3)CC2)c2[c+]1[n-]o[n+]2=O
IC50 [10]: 17.3 µM (active)

SMILES: C/C(=N\Nc1ccc([N+](=O)[O-])cc1[N+](=O)[O-])C(C)C(C)C (configuration not stated)
IC50 [15]: 155 µM (inactive)
